The results in this text go back to ChEMBL document CHEMBL1142840, “4-Phenylcoumarins as HIV transcription inhibitors” (Bioorg Med Chem Lett, 2005).

SMILES strings stand for the structures. Bounds are passed on as bounds.

Test [1] relates to HeLa. Put plainly: Anti-HIV activity (at 50 uM) against human HeLa-Tat-Luc cells transfected with HIV-1 LTR activated by Tat protein. The test is classed as functional.
A short description of test [2]: Anti-HIV activity (at 25 uM) against Jurkat-derived 5.1 cell line stably transfected with HIV-LTR activated by TNF alpha. It counts as functional.
In test [3] the target is Human immunodeficiency virus type 1 reverse transcriptase (Human immunodeficiency virus 1, UniProt Q72547). The test can be described thus: Inhibitory concentration against recombinant human immunodeficiency virus 1 reverse transcriptase.
A further test deals with MT2. Put plainly: Toxicity of compound against human MT-2 cell line at the concentration of 50 uM. It counts as functional.
A short description of test [4]: Anti-HIV activity (at 50 uM) against Jurkat-derived 5.1 cell line stably transfected with HIV-LTR activated by TNF alpha. It counts as functional.
Test [5] deals with HeLa. Put plainly: Anti-HIV activity (at 50 uM) against human HeLa cells through a HeLa-Tet-ON assay; U= unspecific. It counts as functional, cell-based.
Test [6] has as its system HeLa. Put plainly: Anti-HIV activity (at 25 uM) against human HeLa-Tat-Luc cells transfected with HIV-1 LTR activated by Tat protein. The test is classed as functional.
In test [7] the test system is HeLa. The test can be described thus: Anti-HIV activity (at 50 uM) against human HeLa cells through a HeLa-Tet-ON assay; U= specific. The test is classed as functional, cell-based.
Test [8] has as its system HeLa. The test can be described thus: Anti-HIV activity (at 50 uM) against human HeLa cells through a HeLa-Tet-ON assay; S= specific. The test is classed as functional, cell-based.

For the molecule `CC(C)=CCc1c(O)cc(O)c2c(-c3ccccc3)cc(=O)oc12`, the inhibition at 50 µM with HeLa [1] amounted to 15.4%; in test [4], 84.5%. The molecule also returned an inhibition at 25 µM in [2] of 33.4%. Also, in test [3], the IC50 was 11.2 µM. Moreover, the Cell death in the test with MT2 is listed as 34.4%.

On to `CC1CN(C2CC(N=[N+]=[N-])[C@@H](CO)C2)C(=O)NC1=O` (stereo partly drawn), for which, in test [3], the IC50 turned out to be 0.01 µM. The same molecule had a Cell death in the test with MT2 greater than 100%.

For the molecule `CC(C)=CCc1c(O)c(C(O)CC(C)C)c(O)c2c(-c3ccccc3)cc(=O)oc12` (stereo not drawn), the inhibition result in the test with HeLa [5] was “Unspecific”. Also, the inhibition at 50 µM with HeLa [1] stood at 47.6%; in [4], 60%. The molecule further showed a Cell death in the test on MT2 of 8%.

With `CC(C)=CCc1c(O)c(C(=O)C(C)C)c(O)c2c(-c3ccccc3)cc(=O)oc12` [MESUOL], the results for the inhibition entry in the test with HeLa [5] and in the test on HeLa [7] were “Unspecific” and “Specific”, respectively. In addition, the inhibition at 50 µM amounted to 71.3% with HeLa [1] and 77.9% in test [4]. This molecule had an Inhibition in test [2] of 71%. For the same molecule, the inhibition at 25 µM in [2] came out at 67.1%; with HeLa [6], 11.5%. Besides, the IC50 in test [3] worked out at 2.5 µM. The molecule also had a Cell death with MT2 of 22.5%.

Turning to `CC(C)CC(=O)c1c2c(c3oc(=O)cc(-c4ccccc4)c3c1O)C=CC(C)(C)O2` [MAMMEIGIN], the inhibition at 50 µM came out at 3% with HeLa [1] and 15.7% in [4]. In addition, the results for the inhibition at 25 µM (in test [2]; in the test with HeLa [6]) were 5.9% and 2%, respectively. Also, the IC50 in test [3] worked out at 124 µM. Further, the Cell death in the test on MT2 came to 4.7%.

In the case of `CC(C)C(=O)c1c2c(c3oc(=O)cc(-c4ccccc4)c3c1O)C=CC(C)(C)O2` [MESUAGIN], the inhibition at 50 µM in the test on HeLa [1] worked out at 0%; in [4] it was 20.2%. Besides, the inhibition at 25 µM was 10.8% in test [2] and 0% in the test with HeLa [6]. In addition, in test [3], the half-inhibitory concentration (IC50) amounted to 32.1 µM. In the test on MT2, this molecule had a Cell death of 4.5%.

Consider `CC(C)=CCc1c(O)c(C(=O)CC(C)C)c(O)c2c(-c3ccccc3)cc(=O)oc12` [MAMMEISIN], for which the inhibition entry in the test with HeLa [5] is listed as “Unspecific”. Also, the inhibition at 50 µM amounted to 53.1% in the test on HeLa [1] and 58.8% in test [4]. In the test with MT2, this molecule registered a Cell death of 16.6%.

With `CC(C)CC(=O)c1c(O)cc(O)c2c(-c3ccccc3)cc(=O)oc12` [ISODISPAR B], the inhibition result in the test on HeLa [8] was “Specific”. Moreover, the inhibition at 50 µM was 69.4% in the test on HeLa [1] and 85.6% in [4]. Moreover, the results for the inhibition at 25 µM (in test [2]; with HeLa [6]) were 81% and 42%, respectively. Further, the half-inhibitory concentration (IC50) in test [3] amounted to 6.9 µM. The molecule further showed a Cell death with MT2 of 17.2%.

In the case of `COc1c(C(=O)CC(C)C)c(O)c(CC=C(C)C)c2oc(=O)cc(-c3ccccc3)c12`, the figures for the inhibition at 50 µM (in the test with HeLa [1]; in [4]) were 13.5% and 43.6%, respectively. Also, the 50% inhibitory concentration (IC50) in test [3] is 22.2 µM. The molecule further showed a Cell death in the test on MT2 of 4.8%.

Regarding `CC(=O)Oc1c(C(=O)CC(C)C)c(OC(C)=O)c2c(-c3ccccc3)cc(=O)oc2c1CC=C(C)C` [MAMMEISIN DIACETATE], the inhibition entry with HeLa [5] is listed as “Unspecific”. Moreover, the inhibition at 50 µM in the test with HeLa [1] came to 50.4%; in test [4], 81.1%. In addition, in the test with MT2, the Cell death came out at 15.7%.

Take `CC(C)=CCc1c(O)c(C(=O)C(C)C)c2oc(=O)cc(-c3ccccc3)c2c1O` [ISOMESUOL]: in the test with HeLa [8], the inhibition entry is reported as “Specific”. The inhibition at 50 µM in the test with HeLa [1] was determined as 34.3%; in test [4], 67.1%. The inhibition at 25 µM in test [2] amounted to 67%; with HeLa [6], 36.7%. The IC50 in [3] stood at 31.9 µM. The same molecule gave a Cell death in the test on MT2 of 11.5%.

For the molecule `CC(C)CC(=O)c1c2c(c3oc(=O)cc(-c4ccccc4)c3c1O)C[C@@H](C(C)(C)O)O2` [CYCLOMAMMEISIN], the inhibition result with HeLa [5] is reported as “Unspecific”. For the same molecule, the inhibition at 50 µM stood at 22% with HeLa [1] and 86.3% in test [4]. The molecule further returned an inhibition at 25 µM in test [2] of 66.9%. Also, the Cell death in the test with MT2 is reported as 34.1%.

With `CC(C)C(=O)c1c2c(c3oc(=O)cc(-c4ccccc4)c3c1O)C[C@@H](C(C)(C)O)O2` [MESUOL CYCLO F], in the test with HeLa [5], the inhibition result is on record as “Unspecific”. Further, the inhibition at 50 µM is 59.5% with HeLa [1] and 59.4% in test [4]. This molecule registered a Cell death with MT2 of 79.5%.

Consider `CC(C)=C(O)Cc1c(O)c(C(=O)CC(C)C)c(O)c2c(-c3ccccc3)cc(=O)oc12`, for which, in the test on HeLa [8], the inhibition entry was “Specific”. For the same molecule, the inhibition at 50 µM in the test on HeLa [1] amounted to 70.4%; in [4] it was 53.1%. Further, the inhibition at 25 µM in [2] is 55.4%; in the test with HeLa [6] it was 43.6%. For the same molecule, in test [3], the IC50 came to 0.5 µM. The molecule also showed a Cell death in the test with MT2 of 18.5%.

Regarding `CCC(C)C(=O)c1c(O)c(CC=C(C)C)c2oc(=O)cc(-c3ccccc3)c2c1O` (stereo not drawn), the inhibition result in the test with HeLa [5] is on record as “Unspecific”. For the same molecule, the inhibition at 50 µM in the test with HeLa [1] amounted to 86.7%; in test [4], 85.2%. Further, the Cell death in the test with MT2 is listed as 28.8%.

Broadly, the inhibition is the change of the read-out against control, counted positive when it falls. Low readings indicate a response near the control, high ones a response far below the control. What is called IC50 is the concentration needed to halve the response being measured. As usually defined, the Inhibition is the percentage by which the read-out fell short of the control.
